Key:
[1] = tested on: T1, PAL from Spirulina platensis (S. platensis PAL); experiment: forward deamination assay, cinnamic acid absorbance at […] nm; type: biochemical, Limnospira platensis; settings: Tris-HCl pH 8.9; standard assay at 37 °C
T1 construct: native enzyme purified from algal culture (acetone precipitation, Sephadex G-200, DEAE-cellulose); 64 kDa band on SDS-PAGE

[2] = tested on: T2, PAL from Anabaena flos-aquae (A. flos-aquae PAL); experiment: as above; type: biochemical, Dolichospermum flosaquae; settings: Tris-HCl pH 8.9; standard assay at 37 °C
T2 construct: native enzyme purified from algal culture (acetone precipitation, Sephadex G-200, DEAE-cellulose); 64 kDa band on SDS-PAGE

[3] = tested on: T2, PAL from Anabaena flos-aquae (A. flos-aquae PAL); experiment: reverse hydroamination assay, L-phenylalanine formation at […] nm; type: biochemical, Dolichospermum flosaquae; settings: co-substrate NH4OH (stock 5 M); Tris-HCl pH 8.9; standard assay at 37 °C
[4] = tested on: T1, PAL from Spirulina platensis (S. platensis PAL); experiment: as above; type: biochemical, Limnospira platensis; settings: co-substrate NH4OH (stock 5 M); Tris-HCl pH 8.9 (standard assay); 37 °C

Compound | Km [1] [µM] | Km [2] [µM] | Km [3] [µM] | Km [4] [µM]
N[C@@H](Cc1ccccc1)C(=O)O [L-phenylalanine] | 1640 | 1500 |  | 
O=C(O)/C=C/c1ccccc1 [trans-cinnamic acid] |  |  | 300 | 610

From PMC9728195, “Purification and Characterization of Anabaena flos-aquae Phenylalanine Ammonia-Lyase as a Novel Approach for Myristicin Biotransformation” (Journal of Microbiology and Biotechnology, 2019)
